Laboratory results as given in patent US11970479B2, “3-(1H-pyrazol-4-yl)pyridine allosteric modulators of the M4 muscarinic acetylcholine receptor” (Merck Sharp & Dohme LLC, priority 2018, dated 2024).

Each molecule was assayed against T1, human M4 muscarinic acetylcholine receptor (Homo sapiens, UniProt P08173) (assay: human FLIPR-based M4 PAM assay (CHO-K1 cells with human M4 receptor and Gαqi5, calcium dye fluorescence, EC20 acetylcholine)). Conditions: inflection point (IP) of the dose response curve, human M4 receptor/Gαqi5, acetylcholine at 20% of maximum response, read-out: M4PAM Hu IP.
T1 construct: expressed in transfected cells
T1 sequence (P08173 1-479): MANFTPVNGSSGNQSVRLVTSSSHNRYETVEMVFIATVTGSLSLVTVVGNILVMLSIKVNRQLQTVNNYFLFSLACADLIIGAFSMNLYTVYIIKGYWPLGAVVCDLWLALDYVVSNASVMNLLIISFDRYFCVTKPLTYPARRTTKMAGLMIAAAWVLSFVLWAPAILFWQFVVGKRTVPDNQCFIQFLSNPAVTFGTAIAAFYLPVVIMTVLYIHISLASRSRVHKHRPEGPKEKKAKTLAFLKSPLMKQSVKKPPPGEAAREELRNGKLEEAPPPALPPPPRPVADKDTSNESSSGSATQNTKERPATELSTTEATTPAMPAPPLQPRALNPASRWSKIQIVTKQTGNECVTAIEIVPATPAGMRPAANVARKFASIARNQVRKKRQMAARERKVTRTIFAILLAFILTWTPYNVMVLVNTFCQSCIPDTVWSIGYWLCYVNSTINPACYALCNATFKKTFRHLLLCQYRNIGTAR
Format: cell-based
Outline: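 CHO-K1 cells stably expressing human M4 and chimeric Gαqi5 were dye-loaded ~1 h at 37° C. Test compound was added with fluorescence recorded 4 min, then acetylcholine at EC20 (sometimes a further EC70 addition) with reading 3.5 min. Value is the inflection point of a 4-parameter logistic fit.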
Molecule COc1cc2ccc(-c3nc(C)ccc3-c3cnn(CCCC(F)=C(F)F)c3)cc2nn1 [Example 80, 3-methoxy-7-{6-methyl-3-[1-(4,5,5-trifluoropent-4-en-1-yl)-1H-pyrazol-4-yl]pyridin-2-yl}cinnoline] has an EC50 of 154 nM. In the case of CC(C)(C)Cn1cc(-c2ccc(C#N)nc2-c2ccc3cc(Cl)nnc3c2)cn1 [Example 42, 6-(3-chlorocinnolin-7-yl)-5-[1-(2,2-dimethylpropyl)-1H-pyrazol-4-yl]pyridine-2-carbonitrile], the EC50 is reported as 47 nM. For N#Cc1ccc(-c2cnn(CC3(F)CCC3)c2)c(-c2ccc3cccnc3c2)n1 [Example 116, 5-{1-[(1-fluorocyclobutyl)methyl]-1H-pyrazol-4-yl}-6-quinolin-7-ylpyridine-2-carbonitrile], the EC50 was 39 nM. In the case of CSc1cnc(-c2ccc3cccnc3c2)c(-c2cnn(CCC(C)C)c2)c1 [Example 76, 7-{3-[1-(3-methylbutyl)-1H-pyrazol-4-yl]-5-(methylsulfanyl)pyridin-2-yl}quinoline], the EC50 is reported as 63 nM. For COc1cc2ccc(-c3nc(Cl)c(C)cc3-c3cnn(CC(C)(C)OC)c3)cc2nn1 [Example 31, 7-{6-chloro-3-[1-(2-methoxy-2-methylpropyl)-1H-pyrazol-4-yl]-5-methylpyridin-2-yl}-3-methoxycinnoline], the EC50 was 76 nM. Cc1ccc(-c2cnn(CC3CC3(C)C)c2)c(-c2ccc3cccnc3c2)n1 (stereo not shown) [Example 101, 7-(3-{1-[(2,2-dimethylcyclopropyl)methyl]-1H-pyrazol-4-yl}-6-methylpyridin-2-yl)quinoline] was tested, and the EC50 was 100 nM. In the case of CC(C)C(O)Cn1cc(-c2ccc(C#N)nc2-c2ccc3cccnc3c2)cn1 (stereo not shown) [Example 46, 5-[1-(2-hydroxy-3-methylbutyl)-1H-pyrazol-4-yl]-6-quinolin-7-ylpyridine-2-carbonitrile], the EC50 is reported as 169 nM. For CC(C)CCn1cc(-c2ccc(C#N)nc2-c2ccc3cccnc3c2)cn1 [Example 66, 5-[1-(3-methylbutyl)-1H-pyrazol-4-yl]-6-quinolin-7-ylpyridine-2-carbonitrile], the EC50 was 24 nM. Cc1ccc(-c2cnn(CC3CCC(F)CC3)c2)c(-c2ccc3cccnc3c2)n1 (stereo not shown) [Example 18, 7-(3-{1-[(4-fluorocyclohexyl)methyl]-1H-pyrazol-4-yl}-6-methylpyridin-2-yl)quinoline] was tested, and the EC50 was 88 nM. COc1cc2ccc(-c3nc(C)ccc3-c3cnn(CC4CCC(F)CC4)c3)cc2nn1 (stereo not shown) [Example 19, 7-(3-{1-[(4-fluorocyclohexyl)methyl]-1H-pyrazol-4-yl}-6-methylpyridin-2-yl)-3-methoxycinnoline] was tested, and the EC50 was 43 nM. Work on CC(C)CCn1cc(-c2ccc(Br)nc2-c2ccc3cccnc3c2)cn1 [Example 74, 7-{6-bromo-3-[1-(3-methylbutyl)-1H-pyrazol-4-yl]pyridin-2-yl}quinoline] yielded an EC50 of 39 nM. Cc1ccc(-c2cnn(CC34CC5CC(CC(C5)C3)C4)c2)c(-c2ccc3cccnc3c2)n1 [Example 12, 7-(3-(1-(((3r,5r,7r)-adamantan-1-yl)methyl)-1H-pyrazol-4-yl)-6-methylpyridin-2-yl)quinoline] was tested, and the EC50 was 80 nM. In the case of CC(C)C(=O)Cn1cc(-c2ccc(C#N)nc2-c2ccc3cccnc3c2)cn1 [Example 60, 5-[1-(3-methyl-2-oxobutyl)-1H-pyrazol-4-yl]-6-quinolin-7-ylpyridine-2-carbonitrile], the EC50 is reported as 181 nM. COc1cc2ccc(-c3nc(C)ccc3-c3cnn(CCC(C)(C)F)c3)cc2nn1 [Example 3, 7-{3-[1-(3-fluoro-3-methylbutyl)-1H-pyrazol-4-yl]-6-methylpyridin-2-yl}-3-methoxycinnoline] showed an EC50 of 57 nM. Work on Cc1ccc(-c2cnn(CC(C)(C)C)c2)c(-c2ccc3cccnc3c2)n1 [Example 6, 7-{3-[1-(2,2-dimethylpropyl)-1H-pyrazol-4-yl]-6-methylpyridin-2-yl}quinoline] yielded an EC50 of 19 nM. CC(C)CCn1cc(-c2ccc(C3=CCOCC3)nc2-c2ccc3cccnc3c2)cn1 [Example 67, 7-{6-(3,6-dihydro-2H-pyran-4-yl)-3-[1-(3-methylbutyl)-1H-pyrazol-4-yl]pyridin-2-yl}quinoline] gave an EC50 of 121 nM. COc1cc2ccc(-c3nc(C)ccc3-c3cnn(CC45CC(C4)C5)c3)cc2nn1 [Example 10, 7-{3-[1-(bicyclo[1.1.1]pent-1-ylmethyl)-1H-pyrazol-4-yl]-6-methylpyridin-2-yl}-3-methoxycinnoline] showed an EC50 of 20 nM. For CC1(C)CC1Cn1cc(-c2ccc(C#N)nc2-c2ccc3cccnc3c2)cn1 (stereo not shown) [Example 103, 5-{1-[(2,2-dimethylcyclopropyl)methyl]-1H-pyrazol-4-yl}-6-quinolin-7-ylpyridine-2-carbonitrile], the EC50 was 45 nM. In the case of c1cnc(-c2ccc3cccnc3c2)c(-c2cnn(CC3CCCCC3)c2)c1 [Example 106, 7-{3-[1-(cyclohexylmethyl)-1H-pyrazol-4-yl]pyridin-2-yl}quinoline], the EC50 is reported as 93 nM. COc1cc2ccc(-c3nc(C)ccc3-c3cnn(CCCC(F)(F)F)c3)cc2nn1 [Example 77, 3-methoxy-7-{6-methyl-3-[1-(4,4,4-trifluorobutyl)-1H-pyrazol-4-yl]pyridin-2-yl}cinnoline] showed an EC50 of 271 nM. COc1cc2ccc(-c3nc(C#N)ccc3-c3cnn(CC4(C(F)F)CC4)c3)cc2nn1 [Example 28, 5-(1-{[1-(difluoromethyl)cyclopropyl]methyl}-1H-pyrazol-4-yl)-6-(3-methoxycinnolin-7-yl)pyridine-2-carbonitrile] was tested, and the EC50 was 44 nM. With CC(C)(CO)Cn1cc(-c2ccc(C#N)nc2-c2ccc3cccnc3c2)cn1 [Example 113, 5-[1-(3-hydroxy-2,2-dimethylpropyl)-1H-pyrazol-4-yl]-6-quinolin-7-ylpyridine-2-carbonitrile] the EC50 was 139 nM. CC(C)CCn1cc(-c2ccc(Cl)nc2-c2ccc3cccnc3c2)cn1 [Example 63, 7-{6-chloro-3-[1-(3-methylbutyl)-1H-pyrazol-4-yl]pyridin-2-yl}quinoline] was tested, and the EC50 was 26 nM. With COc1cc2ccc(-c3nc(C)ccc3-c3cnn(CCC4CCOC4)c3)cc2nn1 (stereo not shown) [Example 81, 3-methoxy-7-(6-methyl-3-{1-[2-(tetrahydrofuran-3-yl)ethyl]-1H-pyrazol-4-yl}pyridin-2-yl)cinnoline] the EC50 was 228 nM. CC(C)CCn1cc(-c2ccc(C3CC3)nc2-c2ccc3cccnc3c2)cn1 [Example 70, 7-{6-(cyclopropyl)-3-[1-(3-methylbutyl)-1H-pyrazol-4-yl]pyridin-2-yl}quinoline] was tested, and the EC50 was 233 nM. With CC(C)C(F)(F)Cn1cc(-c2ccc(C#N)nc2-c2ccc3cccnc3c2)cn1 [Example 61, 5-[1-(2,2-difluoro-3-methylbutyl)-1H-pyrazol-4-yl]-6-quinolin-7-ylpyridine-2-carbonitrile] the EC50 was 26 nM. In the case of COc1cc2ccc(-c3nc(C#N)c(C)cc3-c3cnn(CC(C)(C)OC)c3)cc2nn1 [Example 33, 6-(3-methoxycinnolin-7-yl)-5-[1-(2-methoxy-2-methylpropyl)-1H-pyrazol-4-yl]-3-methylpyridine-2-carbonitrile], the EC50 is reported as 84 nM. For c1cnc(-c2ccc3cccnc3c2)c(-c2cnn(CCC3CC3)c2)c1 [Example 96, 7-{3-[1-(2-cyclopropylethyl)-1H-pyrazol-4-yl]pyridin-2-yl}quinoline], the EC50 was 239 nM.
